Data from ChEMBL document CHEMBL1201862, “PubChem BioAssay data set” (2004).
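Step 1: Grow cells in 96-well plates. Step 2: Expose to compound for 48 hours at 5 concentrations. Step 3: Interpolate endpoints linearly; if unreached, use highest concentration. Here, GI50 denotes the concentration required for 50% inhibition of growth.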 Active and inactive are the calls of the source. No stated cut-off is given here; in the data, active = GI50 up to about 1.1 µM and inactive = higher.

Key:
Assay in all cases: inhibition of tumour cell growth, NCI panel, 48 h
DMS-114 = tested on: DMS-114
TK-10 = tested on: TK-10
SK-MEL-5 = tested on: SK-MEL-5
HOP-18 = tested on: HOP-18
SF-539 = tested on: SF-539
M14 = tested on: M14
SNB-75 = tested on: SNB-75
SNB-78 = tested on: SNB-78
UO-31 = tested on: UO-31
NCI-H522 = tested on: NCI-H522
SR = tested on: SR
HOP-62 = tested on: HOP-62
SF-295 = tested on: SF-295
HT-29 = tested on: HT-29
DMS-273 = tested on: DMS-273
OVCAR-8 = tested on: OVCAR-8
SK-MEL-2 = tested on: SK-MEL-2
KM12 = tested on: KM12
LXFL 529 = tested on: LXFL 529
UACC-257 = tested on: UACC-257
HOP-92 = tested on: HOP-92
K562 = tested on: K562
XF498 = tested on: XF498
OVCAR-3 = tested on: OVCAR-3
A549 = tested on: A549
EKVX = tested on: EKVX
HCT-15 = tested on: HCT-15
CAKI-1 = tested on: CAKI-1
KM-20L2 = tested on: KM-20L2
ACHN = tested on: ACHN
SF-268 = tested on: SF-268
SK-MEL-28 = tested on: SK-MEL-28
NCI-H23 = tested on: NCI-H23
RPMI-8226 = tested on: RPMI-8226
LOX IMVI = tested on: LOX IMVI
NCI-H460 = tested on: NCI-H460
OVCAR-4 = tested on: OVCAR-4
NCI-H226 = tested on: NCI-H226
RXF 393 = tested on: RXF 393
COLO 205 = tested on: COLO 205
SW-620 = tested on: SW-620
SK-OV-3 = tested on: SK-OV-3
DLD-1 = tested on: DLD-1
SN12C = tested on: SN12C
OVCAR-5 = tested on: OVCAR-5
CCRF-CEM = tested on: CCRF-CEM
SNB-19 = tested on: SNB-19
HCC 2998 = tested on: HCC 2998
MOLT-4 = tested on: MOLT-4
786-0 = tested on: 786-0
UACC-62 = tested on: UACC-62
HCT-116 = tested on: HCT-116
Malme-3M = tested on: Malme-3M
U-251 = tested on: U-251
HL-60 = tested on: HL-60
M19-MEL = tested on: M19-MEL
IGROV-1 = tested on: IGROV-1

CC1(C)OC(=O)C(c2cccs2)C(=O)O1
GI50 (DMS-114): > 100 µM (inactive)
GI50 (TK-10): > 100 µM (inactive)
GI50 (SK-MEL-5): > 100 µM (inactive)
GI50 (HOP-18): > 100 µM (inactive)
GI50 (SF-539): > 100 µM (inactive)
GI50 (M14): > 100 µM (inactive)
GI50 (SNB-75): > 100 µM (inactive)
GI50 (SNB-78): > 100 µM (inactive)
GI50 (UO-31): > 100 µM (inactive)
GI50 (NCI-H522): > 100 µM (inactive)
GI50 (SR): > 100 µM (inactive)
GI50 (HOP-62): > 100 µM (inactive)
GI50 (SF-295): > 100 µM (inactive)
GI50 (HT-29): > 100 µM (inactive)
GI50 (DMS-273): > 100 µM (inactive)
GI50 (OVCAR-8): > 100 µM (inactive)
GI50 (SK-MEL-2): > 100 µM (inactive)
GI50 (KM12): > 100 µM (inactive)
GI50 (LXFL 529): > 100 µM (inactive)
GI50 (UACC-257): > 100 µM (inactive)
GI50 (HOP-92): > 100 µM (inactive)
GI50 (K562): > 100 µM (inactive)
GI50 (XF498): > 100 µM (inactive)
GI50 (OVCAR-3): > 100 µM (inactive)
GI50 (A549): > 100 µM (inactive)
GI50 (EKVX): > 100 µM (inactive)
GI50 (HCT-15): > 100 µM
GI50 (CAKI-1): > 100 µM (inactive)
GI50 (KM-20L2): > 100 µM (inactive)
GI50 (ACHN): > 100 µM (inactive)
GI50 (SF-268): > 100 µM (inactive)
GI50 (SK-MEL-28): > 100 µM (inactive)
GI50 (NCI-H23): > 100 µM (inactive)
GI50 (RPMI-8226): > 100 µM (inactive)
GI50 (LOX IMVI): > 100 µM (inactive)
GI50 (NCI-H460): > 100 µM (inactive)
GI50 (OVCAR-4): > 100 µM (inactive)
GI50 (NCI-H226): > 100 µM (inactive)
GI50 (RXF 393): > 100 µM (inactive)
GI50 (COLO 205): > 100 µM (inactive)
GI50 (SW-620): > 100 µM (inactive)
GI50 (SK-OV-3): > 100 µM (inactive)
GI50 (DLD-1): > 100 µM (inactive)
GI50 (SN12C): > 100 µM (inactive)
GI50 (OVCAR-5): > 100 µM (inactive)
GI50 (CCRF-CEM): > 100 µM (inactive)
GI50 (SNB-19): > 100 µM (inactive)
GI50 (HCC 2998): > 100 µM (inactive)
GI50 (MOLT-4): > 100 µM (inactive)
GI50 (786-0): > 100 µM (inactive)
GI50 (UACC-62): > 100 µM (inactive)
GI50 (HCT-116): > 100 µM (inactive)
GI50 (Malme-3M): > 100 µM (inactive)
GI50 (U-251): > 100 µM (inactive)

C=C1CN2CCc3c([nH]c4ccccc34)C2CC1CC(=O)N(C)C (stereo not given)
GI50 (DMS-114): > 309 µM (inactive)
GI50 (TK-10): > 309 µM (inactive)
GI50 (SK-MEL-5): > 309 µM (inactive)
GI50 (HOP-18): > 309 µM (inactive)
GI50 (SF-539): > 309 µM (inactive)
GI50 (HL-60): > 309 µM (inactive)
GI50 (NCI-H522): > 309 µM (inactive)
GI50 (SR): > 309 µM (inactive)
GI50 (HOP-62): > 309 µM (inactive)
GI50 (SF-295): > 309 µM (inactive)
GI50 (HT-29): > 309 µM (inactive)
GI50 (DMS-273): > 309 µM (inactive)
GI50 (OVCAR-8): > 309 µM (inactive)
GI50 (SK-MEL-2): > 309 µM (inactive)
GI50 (KM12): > 309 µM (inactive)
GI50 (LXFL 529): > 309 µM (inactive)
GI50 (UACC-257): > 309 µM (inactive)
GI50 (HOP-92): 126 µM (inactive)
GI50 (K562): > 309 µM (inactive)
GI50 (M19-MEL): > 309 µM (inactive)
GI50 (XF498): > 309 µM (inactive)
GI50 (OVCAR-3): > 309 µM (inactive)
GI50 (A549): > 309 µM (inactive)
GI50 (EKVX): > 309 µM (inactive)
GI50 (HCT-15): > 309 µM
GI50 (CAKI-1): > 309 µM (inactive)
GI50 (KM-20L2): > 309 µM (inactive)
GI50 (ACHN): > 309 µM (inactive)
GI50 (SF-268): > 309 µM (inactive)
GI50 (SK-MEL-28): > 309 µM (inactive)
GI50 (NCI-H23): > 309 µM (inactive)
GI50 (RPMI-8226): > 309 µM (inactive)
GI50 (LOX IMVI): > 309 µM (inactive)
GI50 (NCI-H460): > 309 µM (inactive)
GI50 (NCI-H226): > 309 µM (inactive)
GI50 (RXF 393): > 309 µM (inactive)
GI50 (COLO 205): > 309 µM (inactive)
GI50 (SW-620): > 309 µM (inactive)
GI50 (SK-OV-3): > 309 µM (inactive)
GI50 (DLD-1): > 309 µM (inactive)
GI50 (SN12C): > 309 µM (inactive)
GI50 (CCRF-CEM): > 309 µM (inactive)
GI50 (SNB-19): > 309 µM (inactive)
GI50 (IGROV-1): > 309 µM (inactive)
GI50 (HCC 2998): > 309 µM (inactive)
GI50 (MOLT-4): > 309 µM (inactive)
GI50 (786-0): > 309 µM (inactive)
GI50 (UACC-62): > 309 µM (inactive)
GI50 (HCT-116): > 309 µM (inactive)
GI50 (Malme-3M): > 309 µM (inactive)
GI50 (U-251): > 309 µM (inactive)
